# Measured values published in article PMC6499206, “Quantification of Volatile Metabolites Derived From Garlic (Allium sativum) in Human Urine” (Frontiers in Nutrition, 2019).
# Assay: Quantification of garlic-derived metabolites in human urine after ingestion of 3 g raw garlic (SIDA, SAFE, HRGC-MS / HRGC-GC-MS)
# Assay type: in vivo
# Parameters: metabolite in urine related to creatinine: unit not given here
# Conditions: for metabolite concentration in urine, creatinine-normalized / metabolite concentration in urine / time of highest concentration in urine after garlic consumption / highest detected concentration of the sample series: 3 g raw garlic; for highest detected concentration of the sample series: same bulb
# Source text: Human urine samples were obtained from 18 volunteers (age 22–38 years, mean 27 years; 11 females, 7 males); thereby, one volunteer conducted the whole experimental series twice. At the time of examination, volunteers reported no known illness that might have potentially influenced the metabolism or the excretion of urine. The test persons were instructed to avoid foods that were rich in sulfur-containing substances at the testing day as well as 2 days preceding the testing day, namely garlic, onion, wild garlic, chives, cabbage, and leek, and were only allowed to consume the garlic sample provided in the course of the experiments. Additionally, subjects were asked to keep records of the food (including food supplements) and beverages they consumed during these 3 testing days. Generally, the overall panelists' requirements were in accordance with our previous studies ([5], [16]).
# On the sampling day, the outer garlic cloves of a whole garlic bulb were peeled and cut into ~3 mm cubes by using a garlic cutter (Genius GmbH, Limburg/Lahn, Germany). Subsequently these cubes were thoroughly mixed and aliquoted into 3 g portions. Three to four test persons conducted the experiment at the same day. Each test person was asked to ingest a garlic portion of 3 g. In total, eight consecutive urine samples were provided by each test person, comprising one whole urine set. The samples were collected in sterile brown glass bottles, with sampling times as follows: one sample was provided directly prior to garlic consumption. The series of the second to eighth sample was then obtained at about 0.5, 1, 2, 4, 6, 8, and 24 h after garlic consumption, respectively. Between the first urine sample (prior to garlic consumption) and the seventh urine sample (8 h after garlic consumption) test persons only spent urine at the specific time points mentioned before. Another sample was provided at the next morning (24 h after garlic consumption). Between the samples provided 8 and 24 h after garlic consumption no urine was collected. All samples were immediately placed into a −80°C freezer and were kept frozen until further analysis.
# The samples of each set were termed according to their sampling time. The following list provides the time intervals that are related to the respective sample name: • - pre: before garlic consumption • - 0.5 h post: 0.4–0.8 h after garlic consumption • - 1 h post: 0.9–1.3 h after garlic consumption • - 2 h post: 1.8 h−2.2 h after garlic consumption • - 4 h post: 3.8–4.4 h after garlic consumption • - 6 h post: 5.8–6.4 h after garlic consumption • - 8 h post: 7.8–8.4 h after garlic consumption • - 24 h post: 23.8–25.6 h after garlic consumption
# A creatinine kit (Labor+Technik Eberhard Lehmann GmbH, Berlin, Germany) was used to determine the creatinine content in each urine sample. The determination principle of this kit is based on the reaction of creatinine with picric acid under basic conditions (Jaffé reaction). The formed complex was detected photometrically at a wavelength of 492 nm.
# For quantification purposes, the deuterated standards ^2H3-AMS, ^2H3-AMSO, and ^2H3-AMSO2 were added to the sample and stirred for 10 min. Subsequently, DCM was added in a ratio of 1:2 (DCM/human urine; v/v) and this solution was stirred for further 30 min at room temperature. To isolate the volatile fraction from the urine samples we then applied SAFE-distillation ([17]), thereby distilling the respective samples at 50°C. After completion of the distillation process, 10 mL of DCM were applied in each case to rinse the SAFE apparatus and to ensure complete transition of the volatile compounds. This process was repeated with another 10 mL of DCM. After thawing, the obtained aqueous distillate phase was extracted three times with 25 mL DCM. The organic phases were combined, dried over anhydrous Na2SO4 and concentrated to a total volume of 100 μL by means of Vigreux distillation and subsequent micro-distillation at 50°C. […]
compound,measurement,setting,value
"C=CCSC [AMS, allyl methyl sulfide]","metabolite concentration in urine, creatinine-normalized","U XII, 2 h post (1.85 h)",1.3 µg/mmol creatinine
same,metabolite concentration in urine,"U XII, 4 h post (3.80 h)",0.5 µg/kg
same,"metabolite concentration in urine, creatinine-normalized","U XII, 4 h post (3.80 h)",0.2 µg/mmol creatinine
same,metabolite concentration in urine,"U XII, 6 h post (5.82 h)",0.4 µg/kg
same,"metabolite concentration in urine, creatinine-normalized","U XII, 6 h post (5.82 h)",0.1 µg/mmol creatinine
same,metabolite concentration in urine,"U XII, 8 h post (7.82 h)",0.3 µg/kg
same,"metabolite concentration in urine, creatinine-normalized","U XII, 8 h post (7.82 h)",0.1 µg/mmol creatinine
same,metabolite concentration in urine,"U XII, 24 h post (23.92 h)",traces^1
same,"metabolite concentration in urine, creatinine-normalized","U XII, 24 h post (23.92 h)",traces^1
same,metabolite concentration in urine,"U XII, pre (-0.08 h)",traces^1
same,"metabolite concentration in urine, creatinine-normalized","U XII, pre (-0.08 h)",traces^1
same,metabolite concentration in urine,"U XIII, 0.5 h post (0.42 h)",0.2 µg/kg
same,"metabolite concentration in urine, creatinine-normalized","U XIII, 0.5 h post (0.42 h)",0.1 µg/mmol creatinine
same,metabolite concentration in urine,"U XIII, 1 h post (0.92 h)",0.9 µg/kg
same,"metabolite concentration in urine, creatinine-normalized","U XIII, 1 h post (0.92 h)",0.3 µg/mmol creatinine
same,metabolite concentration in urine,"U XIII, 2 h post (1.92 h)",1.0 µg/kg
same,"metabolite concentration in urine, creatinine-normalized","U XIII, 2 h post (1.92 h)",0.3 µg/mmol creatinine
same,metabolite concentration in urine,"U XIII, 4 h post (3.92 h)",0.8 µg/kg
same,"metabolite concentration in urine, creatinine-normalized","U XIII, 4 h post (3.92 h)",0.2 µg/mmol creatinine
same,metabolite concentration in urine,"U XIII, 6 h post (5.92 h)",0.4 µg/kg
same,"metabolite concentration in urine, creatinine-normalized","U XIII, 6 h post (5.92 h)",0.04 µg/mmol creatinine
same,metabolite concentration in urine,"U XIII, 8 h post (7.92 h)",0.3 µg/kg
same,"metabolite concentration in urine, creatinine-normalized","U XIII, 8 h post (7.92 h)",0.03 µg/mmol creatinine
same,metabolite concentration in urine,"U XIII, 24 h post (23.92 h)",traces^1
same,"metabolite concentration in urine, creatinine-normalized","U XIII, 24 h post (23.92 h)",traces^1
same,metabolite concentration in urine,"U XIII, pre (-0.08 h)",< LOD^1
same,"metabolite concentration in urine, creatinine-normalized","U XIII, pre (-0.08 h)",< LOD^1
same,amounts detected in samples collected prior to garlic intervention,"Urine III, VII, VIII, XI, XII, XVI, XVII, pre-ingestion samples",≤ 0.2 μg/mmol creatinine
same,time of highest concentration in urine after garlic consumption,Urine VIII,0.5 h
same,variation factor of the concentration maxima between test persons,"Urine XIII-XVI, highest vs lowest maximum",up to 3.2
same,highest detected concentration of the sample series,Urine XIII,0.3 μg/mmol creatinine
same,highest detected concentration of the sample series,Urine XIV (AMS: printed Urine UIV),0.4 μg/mmol creatinine
same,highest detected concentration of the sample series,Urine XV,1.0 μg/mmol creatinine
same,time of highest concentration in urine after garlic consumption,Urine XVI,4 h
same,highest detected concentration of the sample series,Urine XVI,0.3 μg/mmol creatinine
same,metabolite in urine related to creatinine,"urine set U XIX, 0.5 h post (0.50 h), garlic 3.1133 g",0.1
same,metabolite in urine related to creatinine,"urine set U XIX, 1 h post (1.00 h), garlic 3.1133 g",1.5
same,metabolite in urine related to creatinine,"urine set U XIX, 2 h post (2.00 h), garlic 3.1133 g",0.4
same,metabolite in urine related to creatinine,"urine set U XIX, 4 h post (4.00 h), garlic 3.1133 g",0.2
same,metabolite in urine related to creatinine,"urine set U XIX, 6 h post (6.20 h), garlic 3.1133 g",0.1
same,metabolite in urine related to creatinine,"urine set U XIX, 8 h post (7.93 h), garlic 3.1133 g",0.1
same,metabolite in urine related to creatinine,"urine set U XIX, 24 h post (23.98 h), garlic 3.1133 g",0.02
same,metabolite in urine related to creatinine,"urine set U XIX, pre (-0.07 h), garlic 3.1133 g",< LOD^1
same,metabolite in urine related to creatinine,"urine set U XVII, 0.5 h post (0.58 h), garlic 3.1559 g",0.01
same,metabolite in urine related to creatinine,"urine set U XVII, 1 h post (1.00 h), garlic 3.1559 g",0.1
same,metabolite in urine related to creatinine,"urine set U XVII, 2 h post (2.17 h), garlic 3.1559 g",0.3
same,metabolite in urine related to creatinine,"urine set U XVII, 4 h post (4.00 h), garlic 3.1559 g",0.2
same,metabolite in urine related to creatinine,"urine set U XVII, 6 h post (6.08 h), garlic 3.1559 g",0.02
same,metabolite in urine related to creatinine,"urine set U XVII, 8 h post (8.00 h), garlic 3.1559 g",0.02
same,metabolite in urine related to creatinine,"urine set U XVII, 24 h post (23.92 h), garlic 3.1559 g",traces^1
same,metabolite in urine related to creatinine,"urine set U XVII, pre (-0.08 h), garlic 3.1559 g",traces^1
same,metabolite in urine related to creatinine,"urine set U XVIII, 0.5 h post (0.63 h), garlic 3.1981 g",0.2
same,metabolite in urine related to creatinine,"urine set U XVIII, 1 h post (1.05 h), garlic 3.1981 g",0.3
same,metabolite in urine related to creatinine,"urine set U XVIII, 2 h post (2.00 h), garlic 3.1981 g",0.6
same,metabolite in urine related to creatinine,"urine set U XVIII, 4 h post (3.97 h), garlic 3.1981 g",0.4
same,metabolite in urine related to creatinine,"urine set U XVIII, 6 h post (5.97 h), garlic 3.1981 g",0.1
same,metabolite in urine related to creatinine,"urine set U XVIII, 8 h post (8.30 h), garlic 3.1981 g",0.4
same,metabolite in urine related to creatinine,"urine set U XVIII, 24 h post (24.13 h), garlic 3.1981 g",traces^1
same,metabolite in urine related to creatinine,"urine set U XVIII, pre (-0.08 h), garlic 3.1981 g",< LOD^1
